The test system of one test is HDF cells. Nature of the test: Direct cytotoxicity test of IL powders, Alamar blue assay. Type of test: cell-based, human. To be noted: Homo sapiens, 24 h of incubation. On the procedure:
(§1) Cytotoxicity studies on IL powders were carried out using human dermal fibroblast (HDF) cells (Sigma-Aldrich) and a human breast cancer cell line (MCF7). In addition, ILs loaded in PVC polymer substrates were tested for their cytocompatibility and adhesion properties on the HDF. HDF cells were cultured in 75 cm^2 cell culture flask in Dulbecco’s Modified Eagle’s Medium (DMEM) supplemented with 20% Foetal Bovine Serum (FBS), 1% non-essential amino acid (NEAA), antibiotic solution (streptomycin 100 µg/mL and penicillin 100 U/mL, Sigma Aldrich) and 2 mM L-glutamine. MCF7 cells were grown in DMEM with 10% FBS and the same antibiotics as mentioned above. The cells were maintained in a culture at 37 °C, with 5% CO2 and 95% humidity to achieve a confluent layer. Control cells were cultured in a complete medium without any compounds in tissue culture plates. Before biological testing, the samples were sterilised using a UV light for 2 h.
(§2) A direct cytotoxicity test was used to assess the in vitro cytotoxicity of IL powders. IL powders with different alkyl chains were dissolved in DMEM media to obtain solutions at various concentrations (0.5–1–5 and 10 µg/mL) to determine the best formulation.
(§3) After 24 h of incubation of IL solutions (200 µL) with seeded cells under specific environmental conditions (T = 37 °C, HR = 95%, CO2 = 5%), cell viability was tested using the Alamar blue assay (AbD Serotec, Milan, Italy) following the manufacturer’s instructions.
(§4) In summary, each well received a 200 µL aliquot of Alamar Blue^TM diluted 1:10 in phenol red-free medium and was incubated for 4 h at 37 °C, 5% CO2. Following this, 100 µL of the solution was transferred to a 96-well plate for colorimetric analysis. Wells with no cells were included to account for any background interference from the redox indicator. Optical density was immediately measured using a spectrophotometer (Victor X3, Perkin Elmer, Waltham, MA, USA) at 560 and 595 nm wavelengths. The results were presented as a percentage of cell viability compared to that of the control (cells grown on tissue culture plates).
(§5) Here, the antitumor activity and cytotoxicity of the synthetised imidazolium-based ionic liquids have been determined for breast cancer cells (MCF-7) and healthy human fibroblast (HDF) cells. […] Table 5 reports the IC50 values in µg/mL and µM to make their comparison with the literature data easy.

Another test concerns MCF7 cancer cells. The description is as above. Type of test: cell-based, human. To be noted: Homo sapiens, 24 h of incubation. As to the method:
as §1, §2, §3, §4, §5

For `CCCCCCCCCCn1cc[n+](C)c1.F[B-](F)(F)F` [C10mimBF4], the IC50 – broadly, the midpoint of a concentration-inhibition curve – is 13.5 µM with HDF cells (n = 3); 4.18 ± 0.03 µg/mL in the test on HDF cells (n = 3, mean ± SD); 7.39 µg/mL in the test on MCF7 cancer cells (n = 3); 23.8 µM with MCF7 cancer cells (n = 3, mean ± SD).

(Values after article PMC11125126, “Synthesis, Characterisation, and In Vitro Evaluation of Biocompatibility, Antibacterial and Antitumor Activity of Imidazolium Ionic Liquids” (Pharmaceutics, 2024).)
